Measurements as given in publication PMC8484532, “Synthesis and Evaluation of New Halogenated GR24 Analogs as Germination Promotors for Orobanche cumana” (Frontiers in Plant Science, 2021).
Read-outs that look alike come from different tables or passages of the source.

Target: T1, ShHTL7 (Striga hermonthica, UniProt A0A0M3PNA2)
T1 sequence (A0A0M3PNA2 1-271): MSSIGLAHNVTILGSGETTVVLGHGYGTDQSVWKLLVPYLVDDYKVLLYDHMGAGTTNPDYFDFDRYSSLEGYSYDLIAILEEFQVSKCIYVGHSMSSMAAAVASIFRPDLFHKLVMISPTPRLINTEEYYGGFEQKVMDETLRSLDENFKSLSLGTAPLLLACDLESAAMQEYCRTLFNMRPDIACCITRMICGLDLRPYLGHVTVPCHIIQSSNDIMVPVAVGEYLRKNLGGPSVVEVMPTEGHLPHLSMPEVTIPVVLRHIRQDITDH
Assay: in vitro yoshimulactone green (YLG) fluorescence competition assay
Type: biochemical

Structure (SMILES)	IC50 [nM]	IC50 (read-out: IC50) [nM]
CC1=CC(O/C=C2/C(=O)OC3c4ccccc4CC23)OC1=O (racemic) [rac-GR24]	319 ± 32	–
CC1=CC(O/C=C2/C(=O)OC3c4cc(Br)ccc4CC23)OC1=O (stereo not shown) [7BrGR24, 7-bromo-GR24]	–	521 ± 87
CC1=CC(O/C=C2/C(=O)OC3c4cc(F)ccc4CC23)OC1=O (stereo not shown) [7FGR24, 7-fluoro-GR24]	–	189 ± 12
CC1=C[C@H](O/C=C2/C(=O)O[C@@H]3c4ccccc4C[C@H]23)OC1=O [(+)-GR24]	248 ± 32	–
